According to patent publication US9676798B2, “Cationic oligonucleotides, automated methods for preparing same and their uses” (CENTRE NATIONAL DE LA RECHERCHE SCIENTIFIQUE (CNRS), priority 2005, dated 2017):

System: Hela cells
Assay: Penetration of cationic oligonucleotides into cells (fluorescence microscopy, propidium iodide)
Format: cell-based
Conditions: for Cell fluorescence after incubation (penetration into cells): 2 μM, four hours, serum-free MEM, no carrier
Experimental: Hela cells, grown in 10% (v/v) fetal calf serum containing MEM medium, were plated at 50-60×10^3 cells/well into 4-well chambered borosilicate Lab-Tek dishes one day prior to the experiment. Complete medium was replaced by 0.5 ml serum-free MEM medium. A 5′-cationic fluorescein-conjugated oligonucleotide F—S18N19 (where N19 is TCGAAGTACTCAGCGTAAG (SEQ ID NO:7)) formulation was prepared in sterile PBS. It was added to the cells to a final concentration of 2 μM. Four hours later, the medium was replaced by 1 ml of fresh serum-containing medium. A first picture was taken with a Zeiss axiovert 25 fluorescence microscope, equipped with a FITC filter (FIG. 14A, left). […] After 24 h, the medium was replaced with 1 ml of phenol red-free MEM medium. Propidium iodide (1 mM in water) was added to a final concentration of 10 μM.

Substance	Cell fluorescence after incubation (penetration into cells)	Propidium iodide exclusion and retained fluorescence (after 24 h, propidium iodide 10 μM)
F—N19: control fluorescein oligonucleotide without spermine, N19 is TCGAAGTACTCAGCGTAAG (5' fluorescein conjugate, no spermine, further chemistry not given here) [reference compound]	no fluorescence	–
F—S18N19: 5′-cationic fluorescein-conjugated oligonucleotide, N19 is TCGAAGTACTCAGCGTAAG, 18 spermine residues (5' fluorescein and 18 spermine residues attached, backbone chemistry not given here)	All cells became fluorescent	majority of propidiumless healthy cells that were still fluorescent
